Like-named read-outs stand apart in the source and are kept apart here.
Experiments:
[1] = test system: CAR binding to CYP2B6 and CYP3A4 promoter response elements; experiment: Chromatin immunoprecipitation (CAR / RNA polymerase II occupancy at promoters); type: cell-based, human; details: human primary hepatocytes, 3 donors, overnight, 1 μM CITCO or 5 μM CINPA1
Experimental: FIG. 8B and FIG. 8C show the fold enrichment of CAR at CYP2B6-dNR3 and CYP2B6-PBREM sites, respectively, in the promoter region following the indicated treatment in human primary hepatocytes. […] Protein complexes were cross-linked and chromatin was immunoprecipitated by using anti-CAR antibody or control IgG. CAR occupancy at two separate CYP2B6 promoter regions (dNR3 and PBREM) was determined by performing quantitative RT-PCR assays. Fold-enrichment normalized to IgG control was plotted. Data represent the mean±SD of 3 experiments. *, p<0.01 comparing CITCO treatment to DMSO treatment.
FIG. 9A, FIG. 9B, and FIG. 9C show the fold enrichment of CAR at CYP2B6-dNR3, CYP3A4-XREM, and CYP2B6-dNR3 sites, respectively, in the promoter region following the indicated treatment in human primary hepatocytes or HepG2-hCAR1 cells, as indicated in the figures. Briefly, in FIG. 9A and FIG. […] 9C HepG2-hCAR1 stable cells were treated for […] with DMSO, 1 μM CITCO, 5 μM CINPA1, or 1 μM CITCO+5 μM CINPA1. Protein complexes were cross-linked and chromatin was immunoprecipitated by using anti-CAR antibody, anti-RNA polymerase II (RPol) antibody, or control IgG. CAR or RPol occupancy at the CYP2B6-dNR3 region and CYP3A4-XREM region was determined by performing quantitative RT-PCR assays. Fold-enrichment was normalized to IgG control. Data represent the mean±SD of 3 experiments. *, p<0.001 and #, p<0.01 comparing CITCO to DMSO samples. **, p<0.001 and ##, p<0.01 comparing CITCO+CINPA1 to CITCO samples.
ChIP was performed as described previously (Cherian, M. T., et al. (2012) J. Biol. Chem. 287, 23368-23380). Briefly, human hepatocytes in 6-well plates were maintained for 3-4 days in Williams E medium containing Primary Hepatocyte Maintenance Supplement (Life Technologies), with daily media changes. Nine wells were used for each treatment group. […] The HepG2-hCAR1 stable cells in FIG. 9 were treated with DMSO, 1 μM CITCO, 5 μM CINPA1, or 1 μM CITCO+5 μM CINPA1 for […]. In FIG. 9, the hepatocytes from donor 7 were treated with DMSO, 0.1 μM CITCO, 1 μM CINPA1, or 0.1 μM CITCO+1 μM CINPA1 for 45 min. Proteins were cross-linked with 1% formaldehyde for 10 min. Cell extracts were digested for 10 min with 50 units of micrococcal nuclease (New England Biolabs) at 37° C. and further sonicated to yield sheared DNA fragments having an average length of 200-1000 base pairs. The sonicated samples were pelleted by centrifugation, and the supernatant was diluted 3- to 5-fold with ChIP dilution buffer (0.01% SDS, 1.1% Triton X-100, 1.2 mM EDTA, 16.7 mM Tris-HCl, pH 8.1, 167 mM NaCl, and protease inhibitor cocktail). […] Quantitative RT-PCR assays were performed to determine the change in CAR occupancy at various sites of CAR binding. […]

[2] = test system: CAR- and PXR-regulated genes in human primary hepatocytes; experiment: Quantitative real-time PCR in human primary hepatocytes; type: cell-based; details: three donors, 1 μM CITCO or 5 μM PK11195, 48 h
Description: (§1) RNA was extracted, cDNA synthesized, and gene expression analyzed by performing real-time PCR using Taqman probes for each gene. […] LS174T cells were maintained in 10% charcoal-dextran-treated, FBS media for 4 days before the experiment. […] Briefly, human primary hepatocytes (HPH) were maintained in William's E media with supplements for 4 days before treatment. […] RNA extracted was used for cDNA synthesis and measured by performing quantitative real-time PCR assays with Taqman probes.
Briefly, human primary hepatocytes (donor 5) were maintained in William's E Media with supplements for 4 days prior to treatment. […] RNA extracted was used for cDNA synthesis and measured by quantitative real-time PCR with Taqman probes. CYP2B6 and CYP3A4 mRNA were normalized to the internal control 18S and DMSO-treated samples were set to 1.
(§2) Cell lines or human hepatocytes were treated with chemicals for 24-48 hours before RNA was extracted and purified by using the Maxwell 16LEV simplyRNA tissue kit (Promega). Then, cDNA was prepared from 2 μg of RNA, and diluted cDNA was used to perform quantitative RT-PCR assays by using TaqMan probes (ABI; 7500 Thermocycler) with 18S as the internal standard.

GST-hCAR-LBD = molecular target: T1, GST-hCAR-LBD (Homo sapiens, UniProt Q14994); experiment: CoAct binding inverse agonist assay (LanthaScreen TR-FRET, fluorescent PGC-1α coactivator recruitment/repression); type: biochemical; details: for inhibition at 70 µM: read-out: % Inhibition (70 μM)
T1 construct: purchased Life Technologies (Carlsbad, Calif.) or Invitrogen (Carlsbad, Calif.)
T1 sequence (Q14994 109-352 limits assumed): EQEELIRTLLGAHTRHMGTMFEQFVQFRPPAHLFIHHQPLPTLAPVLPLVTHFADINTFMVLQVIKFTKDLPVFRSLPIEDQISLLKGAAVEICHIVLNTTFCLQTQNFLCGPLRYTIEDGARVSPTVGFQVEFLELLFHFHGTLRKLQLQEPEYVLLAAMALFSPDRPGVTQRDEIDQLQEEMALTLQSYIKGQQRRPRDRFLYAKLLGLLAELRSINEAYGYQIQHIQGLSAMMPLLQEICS
Experimental: The effect of putative CAR ligands on the recruitment or repression of PGC-1α binding to hCAR was evaluated by using a LanthaScreen TR-FRET assay according to the manufacturer's instructions. […] The final DMSO concentration was 0.7% in all assay wells. […] The % Inhibition values were then plotted for individual chemicals. When applicable, the graphic software GraphPad Prism 5.04 (GraphPad Software, La Jolla, Calif., USA) was used to fit the data into a one-site competitive-binding equation to derive IC50 values. […] The assay plates were then briefly spun down and incubated for 1 hour at room temperature (25° C.). […] The final DMSO concentration was 0.7% in all assay wells. […] The % Inhibition values were then plotted for individual chemicals. When applicable, the graphic software GraphPad Prism 5.04 (GraphPad Software, La Jolla, Calif., USA) was used to fit the data into a one-site competitive-binding equation to derive IC50 values.

hCAR1 = molecular target: T2, hCAR1 (Homo sapiens, UniProt Q14994); experiment: Cell-based inverse agonist assay (CYP2B6-luciferase reporter in HepG2 cells transfected with hCAR1)
T2 construct: expressed in transfected cells; host or cells: HepG2 (transient transfection)
T2 sequence (Q14994 1-348 isoform Q14994-2): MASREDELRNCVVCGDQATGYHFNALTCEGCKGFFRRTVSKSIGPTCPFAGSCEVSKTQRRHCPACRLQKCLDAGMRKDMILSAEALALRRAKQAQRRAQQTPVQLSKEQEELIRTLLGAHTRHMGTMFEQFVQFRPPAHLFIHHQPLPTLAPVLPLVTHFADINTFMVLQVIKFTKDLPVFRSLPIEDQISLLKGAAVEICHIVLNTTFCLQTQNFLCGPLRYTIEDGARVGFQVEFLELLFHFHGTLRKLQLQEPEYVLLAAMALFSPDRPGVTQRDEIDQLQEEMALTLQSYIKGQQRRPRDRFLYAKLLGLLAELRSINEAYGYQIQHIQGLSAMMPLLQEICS
Experimental: HepG2 cells grown in flasks were transfected with Flag-hCAR1 and CYP2B6-luciferase reporter at a 1:3 ratio with Fugene HD (Promega) and incubated for 24 h. Cells were trypsinized and plated in 384-well plates (CulturPlate-384, PerkinElmer) at 5000 cells/well for the primary or secondary screening assays. Cells were treated with chemicals transferred by using a pintool 24 h prior to measuring reporter luciferase activity with SteadyLite firefly luciferase reagent and an EnVision plate reader (PerkinElmer). […] PXR activity was measured in HepG2 cells stably transfected with hPXR and CYP3A4-luciferase reporter (previously described as PXR Clonel cells, see Li, G., et al. (2012) Tox. Appl. Pharm. 258, 268-274; and Lin, W., et al. (2008) J. Biol. Chem. 283, 30650-30657). […] The luminescence signal was detected by using an Envision plate reader (PerkinElmer) and used to calculate the percentage of PXR activation. […] A flowchart of our screening strategy is illustrated in FIG. 1A. HepG2 cells were transiently transfected with pcDNA-hCAR1 and CYP2B6-luciferase plasmids and treated with varying concentrations of the test compounds in 384-well plates for 24 h, and CAR-mediated luciferase activity was measured. Twenty-five hits, defined as those displaying dose-responsive inhibitory effect on the constitutively active hCAR1, were selected and tested in various secondary screening assays. CINPA1 (FIG. 1B) was selected based on its potent inhibitory effect on hCAR1 and lack of detectable agonistic activity against PXR.

[3] = test system: CAR-regulated genes in LS174T cells; experiment: Quantitative real-time PCR in LS174T cells; type: cell-based; details: 1 μM CINPA1 or 5 μM PK11195, 24 h
Description: as §1
Briefly, LS174T were maintained in 10% charcoal-dextran treated-FBS media for 4 days prior to the experiment. […] For the data shown in both FIG. 12A and FIG. 12B, RNA extracted was used for cDNA synthesis and measured by quantitative real-time PCR with Taqman probes. MDR1 mRNA was normalized to the internal control 18S and DMSO treated samples were set to 1. *, p<0.05 when compared to DMSO samples.
as §2

[4] = 70 μM compound, 42 μM clotrimazole = 100%, DMSO = 0%
[5] = read-out: IC50 (CAR inverse agonistic activity)

Clc1ccc(-c2nc3sccn3c2/C=N/OCc2ccc(Cl)c(Cl)c2)cc1 [CITCO, 6-(4-chlorophenyl)imidazo [2,1-b][1,3]thiazole-5-carbaldehyde O-(3,4-dichlorobenzyl) oxime, reference compound]
CAR recruitment to XREM (dNR3) of the CYP2B6 gene [1]: enhances recruitment of CAR
CYP2B6 mRNA level, compound alone [2]: induced CYP2B6 levels

CCN(CC)CC(=O)N1c2ccccc2CCc2ccc(NC(=O)N(CC)CC)cc21 [Compound 8, 3-(5-(diethylglycyl)-10,11-dihydro-5H-dibenzo[b,f]azepin-3-yl)-1,1-diethylurea]
inhibition at 70 µM (GST-hCAR-LBD; [4]): 93.8%
IC50 (GST-hCAR-LBD; [5]): 14 µM
IC50 (hCAR1): 109.6 µM
% Inhibition (56 μM) (hCAR1): 2.849%

CCNS(=O)(=O)Nc1ccc2c(c1)N(C(=O)CN(CC)CC)c1ccccc1CC2 [Compound 9]
inhibition at 70 µM (GST-hCAR-LBD; [4]): 92%
IC50 (GST-hCAR-LBD; [5]): 19.1 µM
IC50 (hCAR1): 105.9 µM
% Inhibition (56 μM) (hCAR1): 4.757%

CCN(CC)CC(=O)N1c2ccccc2CCc2ccc(Nc3nnc(C)o3)cc21 [Compound 10, 2-(diethylamino)-1-(3-((5-methyl-1,3,4-oxadiazol-2-yl)amino)-10,11-dihydro-5H-dibenzo[b,f]azepin-5-yl)ethan-1-one]
inhibition at 70 µM (GST-hCAR-LBD; [4]): 93.8%
IC50 (GST-hCAR-LBD; Table 4, read-out: IC50): 18.8 µM
fold increase of IC50 (decrease of activity) relative to lead chemical 1 (CINPA1) (GST-hCAR-LBD; relative to chemical 1): about 3.4 fold
IC50 (hCAR1): 111.6 µM
% Inhibition (56 μM) (hCAR1): 6.281%

CCC(C)N(C)C(=O)c1cc2ccccc2c(-c2ccccc2Cl)n1 (centres unmarked) [PK11195, reference compound]
CYP2B6 mRNA level [3]: reduced the levels of CYP2B6
CYP3A4 mRNA level [3]: increased that of CYP3A4
MDR1 mRNA level [3]: reduced MDR1 levels
CYP2B6 mRNA level, compound alone [2]: increased CYP2B6 transcription

N-(5-(diethylglycyl)-10,11-dihydro-5H-dibenzo[b,f]azepin-3-yl)isobutyramide [Compound 3]
% Inhibition (70 μM) (GST-hCAR-LBD; [4]): 113.8%
IC50 (GST-hCAR-LBD; [5]): 0.68 µM
IC50 (hCAR1): 104.4 µM
% Inhibition (56 μM) (hCAR1): 0.03612%

Source: patent US9908890B2, “Selective inhibitors of constitutive androstane receptor” (ST. JUDE CHILDREN'S RESEARCH HOSPITAL, priority 2014, dated 2018)
